Experimental data: patent US7008953B2, “3, 5 Disubstituted indazole compounds, pharmaceutical compositions, and methods for mediating or inhibiting cell proliferation” (Agouron Pharmaceuticals, Inc., priority 2003, dated 2006)

Columns and labels:
Type in all cases: biochemical
CDK2/Cyclin A = molecular target: T1, CDK2/Cyclin A (Homo sapiens, UniProt P24941); assay: Inhibition of CDK2/Cyclin A retinoblastoma kinase activity (apparent Ki); conditions: Rb fragment substrate, 25 μM ATP
T1 construct: made in house; host or cells: CDK2: insect cells (baculovirus); cyclin A: E. coli
Description: Cyclin-dependent kinase activity was measured by quantifying the enzyme-catalyzed, time-dependent incorporation of radioactive phosphate from [^32P]ATP or [^33P]ATP into a protein substrate. Unless noted otherwise, assays were performed in 96-well plates in a total volume of 50 μL, in the presence of 10 mM HEPES (N-[2-hydroxyethyl]piperazine-N′-[2-ethanesulfonic acid]) (pH 7.4), 10 mM MgCl2, 25 μM adenosine triphosphate (ATP), 1 mg/mL ovalbumin, 5 μg/mL leupeptin, 1 mM dithiothreitol, 10 mM beta-glycerophosphate, 0.1 mM sodium vanadate, 1 mM sodium fluoride, 2.5 mM ethylene glycol-bis(β-aminoethyl ethKer)-N,N,N′N′-tetraacetic acid (EGTA), 2% (v/v) dimethylsulfoxide, and 0.03–0.4 μCi [^32/33P]ATP per reaction. Reactions were initiated with enzyme, incubated at 30° C., and terminated after 20 minutes by the addition of ethylenediaminetetraacetic acid (EDTA) to 250 mM. The phosphorylated substrate was then captured on a nitrocellulose or phosphocellulose membrane using a 96-well filtration manifold, and unincorporated radioactivity was removed by repeated washing with 0.85% phosphoric acid. Radioactivity was quantified by exposing the dried membranes to a phosphorimager.
Apparent Ki values were measured by assaying enzyme activity in the presence of different inhibitor compound concentrations and subtracting the background radioactivity measured in the absence of enzyme. Inhibition data were fit to an equation for competitive inhibition using Kaleidagraph (Synergy Software), or were fit to an equation for competitive tight-binding inhibition using the software KineTic (BioKin, Ltd.).
CDK2 was purified using published methodology (Rosenblatt et al., “Purification and Crystallization of Human Cyclin-dependent Kinase 2,” J. Mol. Biol., vol. 230, 1993, pp. 1317–1319) from insect cells that had been infected with a baculovirus expression vector. […] A complex of CDK2 and proteolyzed cyclin A was prepared and purified by gel filtration. The substrate for this assay was the same Rb substrate fragment used for the CDK4 assays, and the methodology of the CDK2/cyclin A and the CDK4/cyclin D3 assays was essentially the same, except that CDK2 was present at 150 nM or 5 nM. Ki values were measured as described above.

[1] = molecular target: glycogen synthase kinase 3 (GSK3B) (Homo sapiens, UniProt P49841); assay: Panel of protein kinases: GSK3B; conditions: method of Davies et al.
glycogen synthase kinase 3 (GSK3B), sequence (P49841 whole entry, species assumed): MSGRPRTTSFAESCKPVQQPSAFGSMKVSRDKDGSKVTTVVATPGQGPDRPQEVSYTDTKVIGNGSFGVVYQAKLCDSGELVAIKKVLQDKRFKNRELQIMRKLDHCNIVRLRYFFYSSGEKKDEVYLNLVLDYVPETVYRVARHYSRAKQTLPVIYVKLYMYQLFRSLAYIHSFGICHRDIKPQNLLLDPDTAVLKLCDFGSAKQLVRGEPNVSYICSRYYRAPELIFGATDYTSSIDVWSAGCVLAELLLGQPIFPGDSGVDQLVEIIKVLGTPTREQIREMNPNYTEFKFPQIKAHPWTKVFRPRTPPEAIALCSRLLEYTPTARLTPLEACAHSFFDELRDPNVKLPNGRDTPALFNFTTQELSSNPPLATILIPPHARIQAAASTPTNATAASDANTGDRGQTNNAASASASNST
Description: (§1) The compounds of the present invention were screened against a large panel of protein kinase to determine inhibition activity for CDK as against a variety of protein kinases. The assay was conducted using methods and materials described by Davies, S et al. Specificity and Mechanism of Action of Some Commonly Used Protein Kinase Inhibitors, Biochem J. 351, 95–105 (2000), the contents of which are herein incorporated by reference. The compounds were screened against a panel of protein kinases which include AMP-activiated protein kinase (AMPK), checkpoint kinase (CHK1), casein kinases 1 and 2 (CK1 and CK2), cytoplasmic tyrosine kinase (CSK), dual serine/threonine/tyrosine kinase (DYRK1A), glycogen synthase kinase 3 (GSK3B), c-Jun N-terminal kinase (JNK), lymphocyte kinase (LCK), mitogen-activated protein kinases 2, K-1a, K2 (MAPK2, MAPKAP-K1a, and MAPKAP-K2), MAPK kinase (MKK1, also called MEK), mitogen and stress-activated protein kinase 1 (MSK1), never-in-mitosis kinase 6 (NEK6), p70 ribosomal protein S6 kinase (P70s6K1), 3-phosphoinositide-dependent protein kinase 1 (PDK1), phosphorylase kinase (PHK), protein kinase A (PKA), protein kinase B (PKB, also called Akt), protein kinase C (PKCa), p38-regulated/activated kinase (PRAK), Rho-dependent protein kinase (ROCK-II), stress-activated protein kinase 2a, 2b, 3 and 4 (SAPK-2A or p38, SAPK-2b or p38β2, SAPK3 or p38γ, SAPK4 or p38δ, respectively), and serum- and glucocorticoid-induced kinase (SGK). Compound activity was grouped into categories of weak (<50%), moderate (50–75%) and strong inhibition (>75%).

[2] = molecular target: MAPK kinase (MKK1, also called MEK) (Homo sapiens, UniProt Q02750); assay: Panel of protein kinases: MKK1; conditions: method of Davies et al.
MAPK kinase (MKK1, also called MEK), sequence (Q02750 whole entry): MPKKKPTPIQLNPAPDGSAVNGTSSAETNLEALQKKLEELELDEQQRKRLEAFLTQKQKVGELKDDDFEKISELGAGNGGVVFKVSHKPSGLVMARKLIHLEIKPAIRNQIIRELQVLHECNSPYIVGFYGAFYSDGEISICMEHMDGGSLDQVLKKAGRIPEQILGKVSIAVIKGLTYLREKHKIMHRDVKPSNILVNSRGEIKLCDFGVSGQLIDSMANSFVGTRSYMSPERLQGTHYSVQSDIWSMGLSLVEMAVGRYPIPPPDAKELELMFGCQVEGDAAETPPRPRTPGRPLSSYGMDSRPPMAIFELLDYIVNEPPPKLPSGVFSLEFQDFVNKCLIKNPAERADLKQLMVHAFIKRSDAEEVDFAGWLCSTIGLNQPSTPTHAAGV
Description: as §1

[3] = molecular target: phosphorylase kinase (PHK) (Oryctolagus cuniculus, UniProt P00518); assay: Panel of protein kinases: PHK; conditions: method of Davies et al.
Description: as §1

protein kinase C (PKCa) = protein kinase C (PKCa) (Homo sapiens, UniProt P17252); assay: Panel of protein kinases: PKCa; conditions: method of Davies et al.
Description: as §1

[4] = molecular target: T2, p38-regulated/activated kinase (PRAK) (Homo sapiens, UniProt Q8IW41); assay: Panel of protein kinases: PRAK; conditions: method of Davies et al.
T2 sequence (Q8IW41 1-473): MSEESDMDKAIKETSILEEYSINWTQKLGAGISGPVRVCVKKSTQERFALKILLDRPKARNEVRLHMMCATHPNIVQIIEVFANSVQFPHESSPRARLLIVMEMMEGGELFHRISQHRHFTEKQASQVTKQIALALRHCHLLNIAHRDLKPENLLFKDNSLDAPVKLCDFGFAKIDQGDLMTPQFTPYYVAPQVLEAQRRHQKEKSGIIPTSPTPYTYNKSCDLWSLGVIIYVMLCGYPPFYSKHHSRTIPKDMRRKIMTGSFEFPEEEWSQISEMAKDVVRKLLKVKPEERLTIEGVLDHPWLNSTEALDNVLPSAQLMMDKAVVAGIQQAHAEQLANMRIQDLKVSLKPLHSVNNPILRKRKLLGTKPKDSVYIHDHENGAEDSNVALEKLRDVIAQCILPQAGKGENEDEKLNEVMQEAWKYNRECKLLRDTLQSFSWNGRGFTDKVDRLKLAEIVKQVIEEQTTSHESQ
Description: as §1

[5] = molecular target: stress-activated protein kinase 2a (SAPK-2A or p38) (Homo sapiens, UniProt Q16539); assay: Panel of protein kinases: SAPK-2A; conditions: method of Davies et al.
stress-activated protein kinase 2a (SAPK-2A or p38), sequence (Q16539 whole entry, species assumed): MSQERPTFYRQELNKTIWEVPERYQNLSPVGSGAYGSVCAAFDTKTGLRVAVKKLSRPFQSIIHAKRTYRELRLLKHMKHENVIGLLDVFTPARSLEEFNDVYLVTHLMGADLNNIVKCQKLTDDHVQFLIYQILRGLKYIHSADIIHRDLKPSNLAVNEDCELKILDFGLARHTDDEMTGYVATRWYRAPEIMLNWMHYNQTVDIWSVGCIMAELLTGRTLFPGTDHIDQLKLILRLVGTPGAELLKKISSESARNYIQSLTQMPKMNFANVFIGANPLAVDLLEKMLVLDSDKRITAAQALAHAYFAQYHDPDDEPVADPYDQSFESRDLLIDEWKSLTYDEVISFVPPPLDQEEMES
Description: as §1

[6] = molecular target: T3, serum- and glucocorticoid-induced kinase (SGK) (Homo sapiens, UniProt O00141, S422D); assay: Panel of protein kinases: SGK; conditions: method of Davies et al.
T3 sequence (O00141 61-431 S422D limits assumed): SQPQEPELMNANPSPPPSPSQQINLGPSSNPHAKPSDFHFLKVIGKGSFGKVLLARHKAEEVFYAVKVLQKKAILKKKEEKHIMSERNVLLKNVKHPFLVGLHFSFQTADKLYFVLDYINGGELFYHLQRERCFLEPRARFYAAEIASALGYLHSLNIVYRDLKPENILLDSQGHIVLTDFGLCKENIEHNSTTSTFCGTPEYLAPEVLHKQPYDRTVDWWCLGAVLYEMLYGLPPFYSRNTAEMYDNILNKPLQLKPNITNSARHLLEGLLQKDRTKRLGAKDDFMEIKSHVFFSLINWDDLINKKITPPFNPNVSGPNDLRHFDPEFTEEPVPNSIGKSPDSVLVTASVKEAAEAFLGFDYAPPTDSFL
Description: as §1

| Compound | Ki (CDK2/Cyclin A) | Kinase GSK3B inhibition [1] | Kinase MKK1 inhibition [2] | Kinase PHK inhibition [3] | Kinase PKCa inhibition (protein kinase C (PKCa)) | Kinase PRAK inhibition [4] | Kinase SAPK-2A inhibition [5] | Kinase SGK inhibition [6] |
| --- | --- | --- | --- | --- | --- | --- | --- | --- |
| CCNCc1cncc(-c2ccc3[nH]nc(-c4nc5ccccc5[nH]4)c3c2)c1C [A] | 0.52 nM | ++ (Strong inhibition >75%) | ++ (Strong inhibition >75%) | ++ (Strong inhibition >75%) | + (Moderate inhibition 50–75%) | ++ (Strong inhibition >75%) | − (Weak inhibition <50%) | + (Moderate inhibition 50–75%) |
| CCNCc1cncc(-c2ccc3[nH]nc(-c4nc5c(C(=O)NC)cccc5[nH]4)c3c2)c1C [B] | 0.25 nM | ++ (Strong inhibition >75%) | + (Moderate inhibition 50–75%) | + (Moderate inhibition 50–75%) | ++ (Strong inhibition >75%) | + (Moderate inhibition 50–75%) | − (Weak inhibition <50%) | + (Moderate inhibition 50–75%) |
| CCNCc1cncc(-c2ccc3[nH]nc(-c4nc5c(SC)cccc5[nH]4)c3c2)c1C [C] | 0.8 nM | ++ (Strong inhibition >75%) | + (Moderate inhibition 50–75%) | + (Moderate inhibition 50–75%) | + (Moderate inhibition 50–75%) | ++ (Strong inhibition >75%) | − (Weak inhibition <50%) | − (Weak inhibition <50%) |
| CCNCc1cncc(-c2ccc3[nH]nc(-c4nc5c(NC(C)=O)cccc5[nH]4)c3c2)c1C [D] | 2.4 nM | ++ (Strong inhibition >75%) | + (Moderate inhibition 50–75%) | − (Weak inhibition <50%) | − (Weak inhibition <50%) | + (Moderate inhibition 50–75%) | − (Weak inhibition <50%) | − (Weak inhibition <50%) |
| CCNCc1cncc(-c2ccc3[nH]nc(-c4nc5c(F)cc(F)cc5[nH]4)c3c2)c1C [Example 1, {5-[3-(4,6-Difluoro-1H-benzoimidazol-2-yl)-1H-indazol-5-yl]-4-methyl-pyridin-3-ylmethyl}-ethyl-amine] | 0.78 nM | ++ (Strong inhibition >75%) | − (Weak inhibition <50%) | + (Moderate inhibition 50–75%) | − (Weak inhibition <50%) | − (Weak inhibition <50%) | − (Weak inhibition <50%) | − (Weak inhibition <50%) |
| CCNCc1cncc(-c2ccc3[nH]nc(-c4nc5cc(F)ccc5[nH]4)c3c2)c1C [Example 2, Ethyl-{5-[3-(5-fluoro-1H-benzoimidazol-2-yl)-1H-indazol-5-yl]-4-methyl-pyridin-3-ylmethyl}-amine] | 0.47 nM | ++ (Strong inhibition >75%) | − (Weak inhibition <50%) | ++ (Strong inhibition >75%) | − (Weak inhibition <50%) | − (Weak inhibition <50%) | − (Weak inhibition <50%) | − (Weak inhibition <50%) |
